Data set [1] in a line: water-solubility of the peptide. In kind it is physicochemical. The source says:
This peptide is hydrophilic and its water-solubility is very good.

For data set [2], the system named is intravascular thrombus. Description: experimental thrombosis: intravascular thrombus induced by a specific lesion of the arterial wall, rat. The data set is classed as in vivo. Particulars: direct intravenous injection. Here is the method:
Experimental work on thrombosis carried out on two different animal species (rat and guineapig) have shown that the peptides according to the invention, in particular the peptides of the general formula […] (II), viz. particularly peptide […] (peptide 1) and peptide […] The type of thrombus which is thus induced takes into account the participation of the blood platelets against which the peptide exerts its activity but also the reactivity of the injured vascular wall. […] In the same experimental thrombosis system, when a peptide according to the invention is used, particularly a peptide of the formula […]

The subject of data set [3] is intravascular thrombus. Description: experimental thrombosis: intravascular thrombus induced by a specific lesion of the arterial wall, guineapig. The data set is classed as in vivo. The following applies: direct intravenous injection. Here is the method: Experimental work on thrombosis carried out on two different animal species (rat and guineapig) have shown that the peptides according to the invention, in particular the peptides of the general formula […] (II), viz. particularly peptide […] (peptide 1) and peptide […] […] The type of thrombus which is thus induced takes into account the participation of the blood platelets against which the peptide exerts its activity but also the reactivity of the injured vascular wall.

Peptide text beside a SMILES is read from it.

With `N=C(N)NCCC[C@H](NC(=O)[C@@H](N)CCCCN)C(=O)N[C@@H](CC(=O)O)C(=O)N[C@@H](CO)C(=O)O` [peptide 1, Lys-Arg-Asp-Ser] (H-KRDS-OH), the water-solubility entry in data set [1] is “very good”.
`N=C(N)NCCC[C@H](NC(=O)[C@H](CC(=O)O)NC(=O)[C@H](CCCNC(=N)N)NC(=O)[C@@H](N)CCCCN)C(=O)O` [peptide 6, Lys-Arg-Asp-Arg] (H-KRDR-OH): the anti-thrombotic activity entry in the data set on intravascular thrombus [2] and in the data set with intravascular thrombus [3] was “exert an anti-thrombotic activity” each time.
